Experimental data from patent publication US11699530B2, “Use of multivariate analysis to assess treatment approaches” (RENSSELAER POLYTECHNIC INSTITUTE, priority 2018, dated 2023).
“Also recorded” adds a separate entry of the source.

Tests used:
[1] = test system: FOCM/TS metabolic profiles of individuals with ASD; assay: FDA model evaluation of clinical trial treatment data (Type II error and discriminant score shift); format: in vivo, children; details: for Post-treatment Type II Error: PDF of post-treatment discriminant scores with respect to H0, 12 weeks (BH4: average of 8 and 16 weeks); for change in Type II error / correction of metabolic abnormalities (in words): comparison among treatments; for Effect Size (95% CI): median paired pre-to-post-treatment change in discriminant score, CI by bootstrap, 10,000 replications; for Change in Type II Error: pre- to post-treatment, with respect to H0
Protocol: MeCbl+LDFA Treatment Data. Subcutaneously injected MeCbl (75 μg/kg, once every three days) in combination with oral LDFA (400 μg, twice per day) was given to children with autism in a 12-week open-label trial. Included children were aged 2 to 7 years and met the diagnostic criteria for autism as defined by the DSM-IV in addition to having a Childhood Autism Rating Scales score greater than 30. Boys and girls made up 82% and 18% of participants in this study, respectively. The IRB at the University of Arkansas for Medical Sciences approved the protocol for this study.
BH4 Treatment Data. A 16-week open-label trial investigated the effects of orally administered BH4 (20 mg/kg, once per day) in children aged 2 to 6 years old with a previous diagnosis of ASD that was confirmed at the time of evaluation with DSM-IV criteria. […] Study participants were 90% males. Approval for this study was given by the IRB at the University of Texas Health Science Center at Houston, Tex. FOCM/TS markers were measured at 8 and 16 weeks following the onset of treatment in this trial; to maintain consistency with the other trials where markers were measured after 12 weeks, the averages of the measurements taken at 8 and 16 weeks were used.
HDFA Treatment Data. A double-blind placebo-controlled trial of HDFA (2 mg/kg per day up to a maximum of 50 mg daily, given orally) was administered over 12 weeks to children between 3 and 14 years of age. ASD diagnoses were made using the Autism Diagnostic Observation Schedule and/or Autism Diagnostic Interview—Revised, or by agreement between physician, psychologist, and speech therapist, or by a physician's diagnosis according to the Diagnostic and Statistical Manual of Mental Disorders, Fifth Edition with later confirmation by the investigators. All children were required to have documented language impairment. 78% of the treatment group were male while 80% of the placebo group were male. The protocol was approved by the IRB at the University of Arkansas for Medical Sciences. All data for participants receiving a placebo in the current analysis were provided.
Biochemical Measurements. Concentrations and ratios of metabolites in the FOCM and TS pathways were measured in each of the above studies, with fifteen measurements appearing in all four data sets. Six of these measures were associated with DNA methylation: methionine, S-adenosylmethionine (SAM), S-adenosylhomocysteine (SAH), the SAM/SAH ratio (an indicator of DNA methylation capacity), homocysteine, and adenosine. The remaining nine measures were precursors of glutathione or markers of redox metabolism: total cysteine, glutamylcysteine (Glu-Cys), cysteinylglycine (Cys-Gly), total and free reduced glutathione (tGSH and fGSH, respectively), oxidized glutathione (GSSG), the ratios of total and free reduced glutathione to oxidized glutathione (tGSH/GSSG and fGSH/GSSG, respectively; these are indicators of intracellular oxidative stress), and percent oxidized glutathione (a derived measure calculated as 2GSSG/[GSH+2GSSG]).
Fisher Discriminant Analysis. Individuals of the IMAGE study were separated into ASD and TD cohorts using Fisher discriminant analysis (FDA). FDA used the data matrix X of size n×m as input, where n study participants are each defined by m biochemical measurements. Sample information for study participant i was contained in row vector xi (size 1×m) and that participant's value for measurement j is indicated by xi,j. The input matrix X were considered as two matrices XASD and XTD taken to represent the separate samples for the ASD and TD cohorts, respectively, with XASD composed of nASD samples and XTD having nTD samples. […]

ASD-related symptoms = details: cited from earlier work

Question: With `Nc1nc(=O)c2c([nH]1)NCC(CNc1ccc(C(=O)N[C@@H](CCC(=O)O)C(=O)O)cc1)N2C=O` (mixture of isomers) [HDFA, high-dose folinic acid] as the molecule, how does the “Post-treatment Type II Error” value [1] read?
Answer: 49.5%

Question: What about the “95% CI for the effect size relative to zero (in words)” value ([1]; bootstrap 95% CI of median change in discriminant score) of the same molecule?
Answer: contained zero

Question: And the “change in Type II error / correction of metabolic abnormalities (in words)” value [1]?
Answer: relatively small increase in Type II error

Question: What about the “Effect Size (95% CI)” value [1] of the same molecule?
Answer: 0.17

Question: What about the “Change in Type II Error” value [1] of the same molecule?
Answer: +17.2%

Question: Which “outcome of treatment (cerebrospinal fluid, symptoms and behavior)” value (ASD-related symptoms; ASD) does the source give for `Nc1nc(=O)c2c([nH]1)NCC(CNc1ccc(C(=O)N[C@@H](CCC(=O)O)C(=O)O)cc1)N2C=O` (mixture of isomers) [folinic acid, Folinic acid] here?
Answer: correct certain abnormalities of the cerebrospinal fluid and improve ASD-related symptoms and behavior

Question: Which “Post-treatment Type II Error” value [1] does the source give for `C[C@H](O)[C@H](O)[C@H]1CNc2nc(N)[nH]c(=O)c2N1` [BH4, tetrahydrobiopterin] here?
Answer: 41.1%

Question: And the “Effect Size (95% CI)” value [1]?
Answer: 0.73

Question: And the “Change in Type II Error” value [1]?
Answer: +40.8%

Question: Which “outcome of open-label and double-blind placebo-controlled studies” value (ASD-related symptoms; children with ASD) does the source give for `C/C1=C2/[N-][C@H]([C@H](CC(N)=O)[C@@]2(C)CCC(=O)NC[C@@H](C)OP(=O)([O-])O[C@H]2[C@@H](O)[C@@H](n3cnc4cc(C)c(C)cc43)O[C@@H]2CO)[C@]2(C)N=C(/C(C)=C3N=C(/C=C4N=C1[C@@H](CCC(N)=O)C\4(C)C)[C@@H](CCC(N)=O)[C@]\3(C)CC(N)=O)[C@@H](CCC(N)=O)[C@]2(C)CC(N)=O.[CH3-].[Co+3]` [MeCbl, methylcobalamin] here?
Answer: improvement in metabolism and ASD-related symptoms

Question: For “methylcobalamin (MeCbl) in combination with low-dose folinic acid (LDFA) [MeCbl + LDFA]”, which “Post-treatment Type II Error” value [1] is on record?
Answer: 43.6%

Question: And the “change in Type II error / correction of metabolic abnormalities (in words)” value [1]?
Answer: greatest correction in ASD-related metabolic abnormalities; also recorded: largest increase in Type II error

Question: And the “Effect Size (95% CI)” value [1]?
Answer: 0.89

Question: And the “Change in Type II Error” value [1]?
Answer: +41.9%
